Read-outs that look alike come from different tables or passages of the source.
Key:
[1] = target: T1, 5-HT2A receptor (Rattus norvegicus, UniProt P14842); test: cell-based
T1 construct: Eight strips of tissue (0.5 cm long) were cut. and were mounted in 10 ml organ baths; tissue Charles River Laboratories; host or cells: rat aorta strips, endothelium removed
How it was run: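 Agonist EC50 and antagonist pKB or pA2 values come from curves fitted by Parker–Waud and from EC50 concentration-ratios with versus without antagonist. Tissue: rat aorta strips, endothelium removed, 37° C Krebs pH 7.4 with 95% O2/5% CO2, 2 g tension; response as % of 5-HT maximum.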

[2] = target: T2, human D2s dopamine receptors (Homo sapiens, UniProt P14416); test: hD2S receptor radioligand binding ([3H]spiperone); conditions: for Ki: pKi reported on a scale of 1 through 5
T2 construct: expressed in transfected cells; host or cells: Chinese hamster ovary cells (membranes)
T2 sequence (P14416 1-414 isoform P14416-2): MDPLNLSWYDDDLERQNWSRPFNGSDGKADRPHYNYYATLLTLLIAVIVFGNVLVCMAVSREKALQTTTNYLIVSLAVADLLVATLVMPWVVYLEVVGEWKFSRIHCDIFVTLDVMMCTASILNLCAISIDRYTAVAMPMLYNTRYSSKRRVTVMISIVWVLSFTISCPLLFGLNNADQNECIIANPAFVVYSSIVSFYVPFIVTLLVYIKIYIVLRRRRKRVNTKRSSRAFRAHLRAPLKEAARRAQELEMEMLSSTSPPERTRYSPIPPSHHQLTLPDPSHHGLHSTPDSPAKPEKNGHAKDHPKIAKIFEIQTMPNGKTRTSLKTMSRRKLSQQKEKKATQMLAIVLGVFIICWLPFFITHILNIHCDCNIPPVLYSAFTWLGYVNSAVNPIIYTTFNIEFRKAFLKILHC
How it was run: (§1)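 Displacement of one fixed radioligand concentration by graded test compound concentrations was measured in receptor-bearing tissue or plasma membrane fractions at equilibrium. Filtration removed displaced radioligand. Concentration-response data, after subtracting nonspecific binding measured with a reference blocker, were used to derive affinity.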

[3] = target: T3, human 5HT1A receptors (Homo sapiens, UniProt P08908); test: h5-HT1A receptor radioligand binding ([3H]8OH-DPAT); conditions: for Ki: pKi reported on a scale of 1 through 5; for binding to 5-HT1A: in words
T3 construct: expressed in transfected cells; host or cells: Chinese hamster ovary cells (membranes)
T3 sequence (P08908 1-422): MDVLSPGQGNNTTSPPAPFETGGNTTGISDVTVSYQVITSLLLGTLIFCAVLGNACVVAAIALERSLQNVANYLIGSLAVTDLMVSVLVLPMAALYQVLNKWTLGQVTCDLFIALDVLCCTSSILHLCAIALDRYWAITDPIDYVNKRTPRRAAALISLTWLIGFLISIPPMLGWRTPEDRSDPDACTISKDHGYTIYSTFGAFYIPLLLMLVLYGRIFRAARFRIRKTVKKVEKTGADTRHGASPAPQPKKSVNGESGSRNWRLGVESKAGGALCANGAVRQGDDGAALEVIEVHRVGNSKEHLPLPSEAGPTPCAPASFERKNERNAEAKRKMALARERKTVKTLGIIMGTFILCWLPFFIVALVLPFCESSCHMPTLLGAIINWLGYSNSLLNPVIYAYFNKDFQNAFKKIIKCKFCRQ
How it was run: as §1

[4] = target: T4, human H1 receptors (Homo sapiens, UniProt P35367); test: hH1 receptor radioligand binding ([3H]Pyrilamine); conditions: for Ki: pKi reported on a scale of 1 through 5; for binding to H1: in words
T4 construct: expressed in transfected cells; host or cells: Chinese hamster ovary cells (membranes)
T4 sequence (P35367 whole entry): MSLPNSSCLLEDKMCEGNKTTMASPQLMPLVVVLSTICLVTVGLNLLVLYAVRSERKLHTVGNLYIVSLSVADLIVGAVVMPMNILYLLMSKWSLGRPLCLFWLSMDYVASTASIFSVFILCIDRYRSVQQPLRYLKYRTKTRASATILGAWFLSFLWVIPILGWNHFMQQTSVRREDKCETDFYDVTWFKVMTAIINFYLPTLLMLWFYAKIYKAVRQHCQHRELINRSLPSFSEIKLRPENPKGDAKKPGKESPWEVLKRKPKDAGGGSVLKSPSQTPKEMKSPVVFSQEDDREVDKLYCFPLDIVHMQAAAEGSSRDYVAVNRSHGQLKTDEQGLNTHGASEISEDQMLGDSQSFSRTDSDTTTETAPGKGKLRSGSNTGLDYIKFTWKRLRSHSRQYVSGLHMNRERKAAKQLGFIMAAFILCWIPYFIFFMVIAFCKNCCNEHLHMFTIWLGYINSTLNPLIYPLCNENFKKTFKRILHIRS
How it was run: as §1

[5] = target: T5, human M1 receptors (Homo sapiens, UniProt P11229); test: hM1 receptor radioligand binding ([3H]NMS); conditions: for Ki: pKi reported on a scale of 1 through 5; for affinity to M1 receptors: in words
T5 construct: expressed in transfected cells; host or cells: Chinese hamster ovary cells (membranes)
T5 sequence (P11229 1-460): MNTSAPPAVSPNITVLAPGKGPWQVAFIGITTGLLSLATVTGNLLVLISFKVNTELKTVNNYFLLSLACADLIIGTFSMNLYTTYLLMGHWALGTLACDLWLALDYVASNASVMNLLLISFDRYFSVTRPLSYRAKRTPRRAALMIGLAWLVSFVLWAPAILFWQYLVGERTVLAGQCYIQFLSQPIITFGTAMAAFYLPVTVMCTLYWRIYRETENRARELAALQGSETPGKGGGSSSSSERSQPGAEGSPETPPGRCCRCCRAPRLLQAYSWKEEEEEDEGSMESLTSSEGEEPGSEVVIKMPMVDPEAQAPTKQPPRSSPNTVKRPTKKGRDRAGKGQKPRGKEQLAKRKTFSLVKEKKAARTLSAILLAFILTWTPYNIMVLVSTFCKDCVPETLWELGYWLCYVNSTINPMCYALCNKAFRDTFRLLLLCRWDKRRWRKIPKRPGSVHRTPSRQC
How it was run: as §1

[6] = read-out: 5HT2A (pKb) (converted)

T1 sequence (P14842 whole entry): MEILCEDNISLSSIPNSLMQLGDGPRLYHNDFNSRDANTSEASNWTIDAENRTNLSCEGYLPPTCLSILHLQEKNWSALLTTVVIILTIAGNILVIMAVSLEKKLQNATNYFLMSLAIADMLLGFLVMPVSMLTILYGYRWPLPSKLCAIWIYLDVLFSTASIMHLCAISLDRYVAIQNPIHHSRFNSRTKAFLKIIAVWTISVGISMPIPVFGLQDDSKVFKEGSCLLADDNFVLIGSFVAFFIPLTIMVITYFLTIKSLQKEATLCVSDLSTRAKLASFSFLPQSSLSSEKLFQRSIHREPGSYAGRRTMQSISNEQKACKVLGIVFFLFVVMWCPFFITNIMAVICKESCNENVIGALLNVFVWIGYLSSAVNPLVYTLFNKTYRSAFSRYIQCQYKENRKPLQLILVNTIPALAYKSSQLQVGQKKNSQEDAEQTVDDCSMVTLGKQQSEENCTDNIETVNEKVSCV

Row | SMILES | Kb [1, 6] [nM] | Ki [2] [nM] | Ki [3] [nM] | Ki [4] [nM] | Ki [5] [nM] | Kb ([1]; rat aorta, Schild plot vs 5-HT, read-out: pA2, antagonist for 5-HT2A receptors (converted)) [nM] | IC50 binding affinity for D2S receptors ([2]; in words) | binds to D2S dopamine receptors ([2]; in words) | affinity for the D2S receptor compared with clozapine ([2]; relative to clozapine, in words) | binding to 5-HT1A [3] | affinity for the 5-HT1A receptors, fold higher than clozapine ([3]; relative to clozapine) [fold] | binding to H1 [4] | affinity for the H1 receptors, fold lower than clozapine ([4]; relative to clozapine) [fold] | affinity to M1 receptors [5] | Kb ([1]; pKb reported on a scale of 1 through 5, read-out: 5HT2A (pKb) (converted)) [nM] | affinity for the 5-HT2A receptors, fold lower than Compound K ([1]; relative to Compound K) [fold]
1 | CCOC(=O)CC1CN(C2=Nc3cc(Cl)ccc3Oc3ccccc32)CCN1 (centres unmarked) [A, (E)-ethyl 2-(4-(8-chlorodibenzo[b,f][1,4]oxazepin-11-yl)piperazin-2-yl)acetate] | 10 to 30.9 | 2510 to 9770 | 100 to 977 | 100 to 977 | 5010 to 9770 | – | – | – | – | – | – | – | – | – | – | –
2 | CCOC(=O)C[C@H]1CN(C2=Nc3cc(Cl)ccc3Oc3ccccc32)CCN1CCC(C)C [ER, (S,E)-ethyl 2-(4-(8-chlorodibenzo[b,f][1,4]oxazepin-11-yl)-1-isopentylpiperazin-2-yl)acetate] | 31.6 to 97.7 | 2510 to 9770 | 1000 to 9770 | 100 to 977 | > 10000 | – | – | – | – | – | – | – | – | – | – | –
3 | CCOC(=O)CC1CN(C2=Nc3ccc(F)cc3Oc3ccccc32)CCN1 (centres unmarked) [J, (E)-ethyl 2-(4-(7-fluorodibenzo[b,f][1,4]oxazepin-11-yl)piperazin-2-yl)acetate] | 31.6 to 97.7 | 2510 to 9770 | 100 to 977 | 100 to 977 | > 10000 | – | – | – | – | – | – | – | – | – | – | –
4 | CCC(C)OC(=O)C[C@H]1CN(C2=Nc3cc(Cl)ccc3Oc3ccccc32)CCN1C (stereo partly drawn) [DY, sec-butyl 2-((S)-4-((E)-8-chlorodibenzo[b,f][1,4]oxazepin-11-yl)-1-methylpiperazin-2-yl)acetate] | 10 to 30.9 | 2510 to 9770 | 1000 to 9770 | 10 to 97.7 | > 10000 | – | – | – | – | – | – | – | – | – | – | –
5 | O=C(C[C@H]1CN(C2=Nc3cc(Cl)ccc3Oc3ccccc32)CCN1)OC1CCCC1 [DR, (S,E)-cyclopentyl 2-(4-(8-chlorodibenzo[b,f][1,4]oxazepin-11-yl)piperazin-2-yl)acetate] | 10 to 30.9 | 631 to 2450 | 10 to 97.7 | 1000 to 9770 | 1260 to 2450 | – | – | – | – | – | – | – | – | – | – | –
6 | CC(C)OC(=O)CC1CN(C2=Nc3ccc(F)cc3Oc3ccccc32)CCN1 (centres unmarked) [M, (E)-isopropyl 2-(4-(7-fluorodibenzo[b,f][1,4]oxazepin-11-yl)piperazin-2-yl)acetate] | 10 to 30.9 | > 10000 | 100 to 977 | 1000 to 9770 | > 10000 | – | – | – | – | – | – | – | – | – | – | –
7 | CC(C)OC(=O)CC1CN(C2=Nc3cc(Cl)ccc3Oc3ccccc32)CCN1 (centres unmarked) [L, (E)-isopropyl 2-(4-(8-chlorodibenzo[b,f][1,4]oxazepin-11-yl)piperazin-2-yl)acetate] | 10 to 30.9 | 2510 to 9770 | 100 to 977 | 100 to 977 | > 10000 | – | – | – | – | – | – | – | – | – | – | –
8 | CCOC(=O)C[C@H]1CN(C2=Nc3cc(Cl)ccc3Oc3ccccc32)CCN1 [Compound K, (S,E)-ethyl 2-(4-(8-chlorodibenzo[b,f][1,4]oxazepin-11-yl)piperazin-2-yl)acetate] | 3.16 to 9.77 | 631 to 2450 | 100 to 977 | 100 to 977 | > 10000 | 3.16 | low micromolar | Binds | comparable | bind | 4 | bind | 69 | very low affinity | – | –
9 | O=C(C[C@H]1CN(C2=Nc3cc(Cl)ccc3Oc3ccccc32)CCN1)OC1CCOCC1 [DV, (S,E)-tetrahydro-2H-pyran-4-yl 2-(4-(8-chlorodibenzo[b,f][1,4]oxazepin-11-yl)piperazin-2-yl)acetate] | 3.16 to 9.77 | 631 to 2450 | 10 to 97.7 | 1000 to 9770 | > 10000 | – | – | – | – | – | – | – | – | – | – | –
10 | CN1CCN(C2=Nc3cc(Cl)ccc3Oc3ccccc32)C[C@@H]1CC(=O)NCC(F)(F)C(F)(F)F [EU, (S,E)-2-(4-(8-chlorodibenzo[b,f][1,4]oxazepin-11-yl)-1-methylpiperazin-2-yl)-N-(2,2,3,3,3-pentafluoropropyl)acetamide] | – | 2510 to 9770 | 1000 to 9770 | 100 to 977 | > 10000 | – | – | – | – | – | – | – | – | – | > 100 | –
11 | O=C(O)C[C@H]1CN(C2=Nc3cc(Cl)ccc3Oc3ccccc32)CCN1 [Compound Q, (S,E)-2-(4-(8-chlorodibenzo[b,f][1,4]oxazepin-11-yl)piperazin-2-yl)acetic acid] | 10 to 30.9 | > 10000 | 100 to 977 | 100 to 977 | > 10000 | – | – | not | – | bind | – | bind | – | very low affinity | – | 8
12 | O=C(C[C@H]1CN(C2=Nc3cc(Cl)ccc3Oc3ccccc32)CCN1)O[C@H]1CCOC1 [EQ, (S)-tetrahydrofuran-3-yl 2-((S)-4-((E)-8-chlorodibenzo[b,f][1,4]oxazepin-11-yl)piperazin-2-yl)acetate] | 3.16 to 9.77 | 631 to 2450 | 10 to 97.7 | 10 to 97.7 | 5010 to 9770 | – | – | – | – | – | – | – | – | – | – | –

Source: patent US20120178738A1, “DIBENZO [B,F] [1,4]OXAZAPINE COMPOUNDS” (ARYX THERAPEUTICS, INC., priority 2007, published 2012)
